In general, EC50 refers to the concentration that produces a half-maximal response.

SMILES strings stand for the structures. Bounds are passed on as bounds.

One series relates to MDA-MB-231. Nature of the series: Antiproliferative activity against human MDA-MB-231 cells after 72 hrs by MTT assay. In kind it is functional, cell-based. The note with it: MDA-MB-231, 72 h. For orientation: Tetrazolium assays rely on reduction of a dye to a coloured formazan, in cell work by metabolically active cells.
The next series relates to HeLa. In words: Antiproliferative activity against human HeLa cells after 72 hrs by MTT assay. It is filed as functional, cell-based.
The subject of a further series is T47D. Nature of the series: Antiproliferative activity against human T47D cells after 72 hrs by MTT assay. It is filed as functional, cell-based.
The test system of a further series is SiHa. Nature of the series: Antiproliferative activity against human SiHa cells after 72 hrs by MTT assay. In kind it is functional, cell-based.
Series [1] relates to Plasmodium falciparum. In words: Potency index, ratio of chloroquine EC50 to test compound EC50 for synchronized ring stage of Plasmodium falciparum 3D7 infected in human erythrocytes. In kind it is functional.
Another series has as its system C-33-A. Nature of the series: Antiproliferative activity against human C33A cells after 72 hrs by MTT assay. In kind it is functional, cell-based.
Another series deals with Human betaherpesvirus 5. In words: Antiviral activity against GFP-fused Human cytomegalovirus AD169 infected in HFF measured 7 days post infection. In kind it is functional, organism-based. As to conditions: Human betaherpesvirus 5, AD169, HFF, 168 h.
A further series deals with MCF7. In words: Antiproliferative activity against human MCF7 cells after 72 hrs by MTT assay. It is filed as functional, cell-based. The note with it: MCF7, 72 h.
The next series deals with HFF. In words: Cytotoxicity against HFF measured over 7 days by microscopic analysis. It is filed as cell-based. The note with it: human, 168 h.
The test system of series [2] is Plasmodium falciparum. Nature of the series: Antimalarial activity against synchronized ring stage of Plasmodium falciparum 3D7 infected in human erythrocytes after 72 hrs by SYBR Green1 dye based fluorescence assay. In kind it is functional, organism-based. As to conditions: 3D7, 72 h.
Another series relates to MDA-MB-361. In words: Antiproliferative activity against human MDA-MB-361 cells after 72 hrs by MTT assay. It is filed as functional, cell-based. The note with it: MDA-MB-361, 72 h.

Consider `COc1ccc2c(c1)CC[C@@H]1[C@@H]2CC[C@]2(C)[C@@H](O)[C@H](NC(=O)CCC(=O)O[C@@H]3O[C@@H]4O[C@@]5(C)CC[C@H]6[C@H](C)CC[C@@H]([C@H]3C)[C@@]46OO5)C[C@@H]12`, for which the concentration for a half-maximal effect (EC50) with MDA-MB-231 is 6.89 µM; with HeLa, 11.5 µM; in the series on T47D, 0.74 µM; in the series on SiHa, 26 µM; with C-33-A, 0.87 µM; in the series on Human betaherpesvirus 5, 2.44 µM. The EC50 came to 4.69 µM in the series with MCF7, 0.0038 µM in the series on Plasmodium falciparum [2] and 0.64 µM in the series with MDA-MB-361. Further, in the series with Plasmodium falciparum [1], the “Ratio EC50” value is 2. For the same molecule, in the series on HFF, the Activity result is “Non-Toxic”.
Turning to `COc1ccc2c(c1)CC[C@@H]1[C@@H]2CC[C@]2(C)[C@@H](O)[C@H](N)C[C@@H]12`, the EC50 in the series on MDA-MB-231 stood at 16 µM; in the series with HeLa, 13.3 µM; in the series with T47D, 5.56 µM; in the series with SiHa, 17.4 µM; in the series with C-33-A it was 13.2 µM; in the series with MCF7, 11.9 µM. Also, in the series with MDA-MB-361, the EC50 was 4.58 µM.
Regarding `COc1ccc2c(c1)CC[C@@H]1[C@@H]2CC[C@]2(C)C(=O)[C@H](n3cc(CO[C@H]4O[C@@H]5O[C@@]6(C)CC[C@H]7[C@H](C)CC[C@@H]([C@H]4C)[C@@]57OO6)nn3)C[C@@H]12`, the EC50 in the series with MDA-MB-231 is 1.78 µM; in the series with HeLa, 15.4 µM; with T47D it was 0.16 µM; in the series with SiHa it was 28.9 µM; in the series with C-33-A, 2.05 µM; in the series on Human betaherpesvirus 5 it was 0.24 µM. Further, the EC50 in the series with MCF7 amounted to 1.77 µM; with Plasmodium falciparum [2], 0.0131 µM; in the series on MDA-MB-361 it was 0.17 µM. Also, the Activity entry in the series on HFF was “Non-Toxic”.
On to `C[C@H]1[C@@H](CC(=O)OC[C@H]2C[C@H]3[C@@H]4CCc5cc(OCc6ccccc6)ccc5[C@H]4CC[C@]3(C)[C@H]2O)O[C@@H]2O[C@@]3(C)CC[C@H]4[C@H](C)CC[C@@H]1[C@@]24OO3`, for which the EC50 came out at 0.86 µM in the series with MDA-MB-231; 14.2 µM with HeLa; 0.93 µM in the series on T47D; 16.1 µM in the series on SiHa; 0.15 µM in the series with C-33-A; 0.22 µM in the series with Human betaherpesvirus 5. Besides, the EC50 in the series with MCF7 came to 0.45 µM; in the series on Plasmodium falciparum [2], 0.129 µM; in the series with MDA-MB-361 it was 0.18 µM. Besides, the Activity entry in the series with HFF is reported as “Non-Toxic”.
`C[C@]12CC[C@@H]3c4ccc(OCc5ccccc5)cc4CC[C@H]3[C@@H]1C[C@H](CO)[C@@H]2O`: the EC50 in the series with MDA-MB-231 is 12.8 µM; in the series on HeLa, 12.8 µM; with T47D it was 8.32 µM; in the series with SiHa, 7.75 µM; in the series on C-33-A, 12.2 µM; with MCF7, 12.9 µM. Further, the EC50 in the series with Plasmodium falciparum [2] was determined as 17.2 µM; in the series with MDA-MB-361, 2.77 µM.
As to `COc1ccc2c(c1)CC[C@@H]1[C@@H]2CC[C@]2(C)[C@@H](O)[C@H](NC(=O)O[C@H]3O[C@@H]4O[C@@]5(C)CC[C@H]6[C@H](C)CC[C@@H]([C@H]3C)[C@@]46OO5)C[C@@H]12`, the EC50 came to 1.85 µM with MDA-MB-231; 1.65 µM in the series on HeLa; 1.17 µM with T47D; 6.21 µM in the series with SiHa; 0.57 µM with C-33-A; 0.23 µM in the series with Human betaherpesvirus 5. Further, the EC50 in the series on MCF7 is 1.02 µM; in the series on Plasmodium falciparum [2], 0.0077 µM; with MDA-MB-361 it was 0.69 µM. The Activity entry in the series with HFF is “Non-Toxic”.
As for `C[C@H]1[C@H](OC(=O)CCC(=O)OC[C@H]2C[C@H]3[C@@H]4CCc5cc(OCc6ccccc6)ccc5[C@H]4CC[C@]3(C)[C@H]2O)O[C@@H]2O[C@@]3(C)CC[C@H]4[C@H](C)CC[C@@H]1[C@@]24OO3`, the concentration giving a half-maximal response (EC50) with MDA-MB-231 is 2.3 µM; in the series with HeLa it was greater than 30 µM; in the series with T47D, 0.22 µM; in the series with SiHa, 28.4 µM; in the series on C-33-A, 1.73 µM; with Human betaherpesvirus 5, 0.38 µM. Further, the half-maximal effective concentration (EC50) in the series with MCF7 is 0.76 µM; in the series with Plasmodium falciparum [2] it was 0.0342 µM; in the series on MDA-MB-361 it was 0.2 µM. For the same molecule, the Activity result in the series on HFF is “Non-Toxic”.
Turning to `COc1ccc2c(c1)CC[C@@H]1[C@@H]2CC[C@]2(C)C(=O)[C@H](N=[N+]=[N-])C[C@@H]12`, the EC50 in the series with MDA-MB-231, in the series on HeLa, with T47D, in the series with SiHa, with C-33-A and with MCF7 was greater than 30 µM throughout. In addition, the EC50 in the series with Plasmodium falciparum [2] is greater than 50 µM; with MDA-MB-361, greater than 30 µM.
The molecule `C[C@@H]1CC[C@H]2[C@@H](C)C(=O)O[C@@H]3O[C@@]4(C)CC[C@@H]1[C@]32OO4` [ARTEMISININ] displayed an EC50 in the series with Human betaherpesvirus 5 greater than 10 µM.
`C[C@H]1[C@@H](O)O[C@@H]2O[C@@]3(C)CC[C@H]4[C@H](C)CC[C@@H]1[C@@]24OO3` [ARTENIMOL]: the EC50 in the series with MDA-MB-231 was 10.7 µM; in the series on HeLa, 10.5 µM; with T47D, 4.6 µM; in the series on SiHa, 29.8 µM; in the series with C-33-A, 1.71 µM; with Human betaherpesvirus 5 it was greater than 10 µM. In addition, the concentration giving a half-maximal response (EC50) came out at 8.24 µM with MCF7 and 1.71 µM with MDA-MB-361.
Take `C[C@H]1[C@H](OC(=O)CCC(=O)O)O[C@@H]2O[C@@]3(C)CC[C@H]4[C@H](C)CC[C@@H]1[C@@]24OO3` [ARTESUNATE]: the 50% effective concentration (EC50) in the series on MDA-MB-231 was 10 µM; in the series with HeLa, 12 µM; in the series with T47D, 2.22 µM; with SiHa it was greater than 30 µM; in the series with C-33-A it was 1.83 µM; with MCF7, 4.21 µM. The concentration for a half-maximal effect (EC50) in the series with Plasmodium falciparum [2] turned out to be 0.0089 µM; with MDA-MB-361, 2.27 µM.

Values taken from ChEMBL document CHEMBL4266063, “Synthesis of Artemisinin-Estrogen Hybrids Highly Active against HCMV, P. falciparum, and Cervical and Breast Cancer” (ACS Med Chem Lett, 2018).
